In general, IC50 refers to the concentration needed to halve the response being measured. Read a low IC50 as greater potency in that assay.

Common to all, as to test: IMAP-Based HTS FP Assay/ TR-FRET Assay
In general terms: Time-resolved FRET reads energy transfer from a long-lived donor to a nearby acceptor.

Test [1] concerns the target Serine/threonine-protein kinase PLK1 (Homo sapiens, UniProt P53350). An excerpt:
(§1) An IMAP-based PKD HTS FR assay was used for primary HTS of the PMLSC library to identify hit compounds and subsequent secondary hit confirmation studies.

In test [2] the target is Cyclin-dependent kinase 7 (Homo sapiens, UniProt P50613).
Cyclin-dependent kinase 7, sequence (P50613 whole entry): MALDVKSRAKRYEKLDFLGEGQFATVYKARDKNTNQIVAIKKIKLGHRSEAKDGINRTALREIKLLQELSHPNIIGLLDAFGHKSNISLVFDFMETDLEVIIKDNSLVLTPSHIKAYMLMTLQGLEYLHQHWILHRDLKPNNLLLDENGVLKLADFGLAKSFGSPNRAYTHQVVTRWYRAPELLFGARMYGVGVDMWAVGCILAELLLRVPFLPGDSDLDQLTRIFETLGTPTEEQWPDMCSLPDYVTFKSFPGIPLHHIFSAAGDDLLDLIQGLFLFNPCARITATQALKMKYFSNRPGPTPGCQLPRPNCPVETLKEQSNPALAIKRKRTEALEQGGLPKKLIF
Excerpt: as §1

Test [3] deals with T1, Serine/threonine-protein kinase D1 (Homo sapiens, UniProt Q15139).
T1 sequence (Q15139 whole entry): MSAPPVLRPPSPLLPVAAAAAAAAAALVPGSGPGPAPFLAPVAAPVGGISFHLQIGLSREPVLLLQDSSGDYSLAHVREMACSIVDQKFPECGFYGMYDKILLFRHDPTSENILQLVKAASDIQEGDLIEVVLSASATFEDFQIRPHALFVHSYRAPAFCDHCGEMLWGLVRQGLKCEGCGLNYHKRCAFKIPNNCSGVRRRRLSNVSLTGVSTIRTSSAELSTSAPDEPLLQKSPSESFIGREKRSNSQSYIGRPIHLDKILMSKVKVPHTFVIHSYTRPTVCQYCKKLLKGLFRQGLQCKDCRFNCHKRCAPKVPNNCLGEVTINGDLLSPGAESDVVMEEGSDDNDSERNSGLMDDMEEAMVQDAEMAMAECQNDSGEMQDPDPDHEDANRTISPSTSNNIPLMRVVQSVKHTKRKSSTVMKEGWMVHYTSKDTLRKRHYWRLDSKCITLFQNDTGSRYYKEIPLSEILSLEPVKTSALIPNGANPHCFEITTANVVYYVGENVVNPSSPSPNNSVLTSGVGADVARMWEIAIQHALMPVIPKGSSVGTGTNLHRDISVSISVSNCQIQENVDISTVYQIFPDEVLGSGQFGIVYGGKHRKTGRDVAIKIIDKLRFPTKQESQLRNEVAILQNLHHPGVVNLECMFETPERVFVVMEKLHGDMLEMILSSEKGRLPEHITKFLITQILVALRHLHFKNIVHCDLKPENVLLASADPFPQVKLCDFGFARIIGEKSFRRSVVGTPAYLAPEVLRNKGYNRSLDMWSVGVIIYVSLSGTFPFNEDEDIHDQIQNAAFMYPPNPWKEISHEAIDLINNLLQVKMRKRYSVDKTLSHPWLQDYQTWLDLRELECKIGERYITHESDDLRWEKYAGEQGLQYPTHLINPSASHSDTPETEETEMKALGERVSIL
Excerpt: as §1

Test [4] deals with RAC-alpha serine/threonine-protein kinase (Homo sapiens, UniProt P31749).
RAC-alpha serine/threonine-protein kinase, sequence (P31749 whole entry): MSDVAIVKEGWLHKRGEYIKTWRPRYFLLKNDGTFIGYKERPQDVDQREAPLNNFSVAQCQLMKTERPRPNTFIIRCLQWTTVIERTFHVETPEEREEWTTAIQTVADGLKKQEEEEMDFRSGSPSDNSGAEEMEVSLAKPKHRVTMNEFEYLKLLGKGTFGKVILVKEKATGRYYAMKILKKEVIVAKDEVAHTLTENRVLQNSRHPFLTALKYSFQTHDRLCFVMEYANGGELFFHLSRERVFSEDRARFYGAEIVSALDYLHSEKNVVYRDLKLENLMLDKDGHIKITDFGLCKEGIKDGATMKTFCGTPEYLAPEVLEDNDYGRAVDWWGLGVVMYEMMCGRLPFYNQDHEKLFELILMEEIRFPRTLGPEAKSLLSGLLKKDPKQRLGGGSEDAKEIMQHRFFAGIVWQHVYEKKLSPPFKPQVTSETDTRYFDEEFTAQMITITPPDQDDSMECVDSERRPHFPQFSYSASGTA
Excerpt: as §1

Serine/threonine-protein kinase PLK1, sequence (P53350 whole entry): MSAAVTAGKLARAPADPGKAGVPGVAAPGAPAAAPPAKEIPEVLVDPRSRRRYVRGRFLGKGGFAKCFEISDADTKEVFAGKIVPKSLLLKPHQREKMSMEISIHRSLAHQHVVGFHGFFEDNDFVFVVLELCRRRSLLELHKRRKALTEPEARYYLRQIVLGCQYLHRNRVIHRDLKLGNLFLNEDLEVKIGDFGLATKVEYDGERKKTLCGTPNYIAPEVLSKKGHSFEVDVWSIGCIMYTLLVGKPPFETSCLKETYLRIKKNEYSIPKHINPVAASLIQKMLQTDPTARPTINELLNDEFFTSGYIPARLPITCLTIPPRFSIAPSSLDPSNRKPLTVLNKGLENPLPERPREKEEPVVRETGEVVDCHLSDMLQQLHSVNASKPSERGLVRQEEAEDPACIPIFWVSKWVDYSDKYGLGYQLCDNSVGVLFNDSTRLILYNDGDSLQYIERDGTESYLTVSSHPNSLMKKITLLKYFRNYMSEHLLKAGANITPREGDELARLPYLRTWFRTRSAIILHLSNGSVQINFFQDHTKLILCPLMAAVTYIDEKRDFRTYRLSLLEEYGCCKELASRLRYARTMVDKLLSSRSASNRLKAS

Consider `O=C1NCCCc2c1oc1ccc(O)cc21` [7-hydroxy-2,3,4,5-tetrahydro-[1]benzofuro[2,3-c]azepin-1-one], for which the concentration for half-maximal inhibition (IC50) in test [1] was 20.3 µM; in test [2], 15.3 µM; in test [3] it was 0.5 µM; in test [4], > 50 µM.
As for `O=c1oc2ccc(O)cc2c2c1NCCC2` [CID 797718], the 50% inhibitory concentration (IC50) in test [1] was 21.9 µM; in test [2], 8.4 µM; in test [4] it was > 50 µM.

(Values after BindingDB's records for doi:10.1074/jbc.M805358200 (University of Pittsburgh, 2008).)
